Assay results: patent US20180298010A1, “PRMT5 INHIBITORS AND USES THEREOF” (Epizyme, Inc., priority 2012, published 2018)

The compounds below were run against T1, PRMT5/MEP50 (Homo sapiens, UniProt O14744) (assay: PRMT5 Biochemical Assay (PRMT5/MEP50 enzyme assay on peptide substrate, 3H-SAM Flashplate)).
T1 construct: Flag-PRMT5; 6His-MEP50
T1 sequence (O14744 with tags, fused parts or gaps): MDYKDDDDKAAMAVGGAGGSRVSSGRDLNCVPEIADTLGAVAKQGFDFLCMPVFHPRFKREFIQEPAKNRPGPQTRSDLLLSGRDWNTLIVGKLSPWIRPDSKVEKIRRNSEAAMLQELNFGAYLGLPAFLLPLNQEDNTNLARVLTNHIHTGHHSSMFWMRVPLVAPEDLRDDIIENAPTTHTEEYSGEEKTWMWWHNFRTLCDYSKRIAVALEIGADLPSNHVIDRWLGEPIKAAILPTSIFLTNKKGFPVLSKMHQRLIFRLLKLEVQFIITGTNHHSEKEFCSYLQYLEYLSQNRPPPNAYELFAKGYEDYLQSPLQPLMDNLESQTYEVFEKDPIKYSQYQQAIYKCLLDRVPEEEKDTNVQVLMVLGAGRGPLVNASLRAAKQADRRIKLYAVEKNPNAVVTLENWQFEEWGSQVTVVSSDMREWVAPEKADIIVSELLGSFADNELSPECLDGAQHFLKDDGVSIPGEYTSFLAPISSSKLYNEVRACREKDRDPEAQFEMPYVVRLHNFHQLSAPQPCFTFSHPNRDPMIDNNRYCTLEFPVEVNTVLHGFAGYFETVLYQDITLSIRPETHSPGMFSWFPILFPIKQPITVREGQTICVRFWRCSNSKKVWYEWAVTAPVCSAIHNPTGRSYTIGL
T1 sequence (Q9BQA1 with tags, fused parts or gaps partner): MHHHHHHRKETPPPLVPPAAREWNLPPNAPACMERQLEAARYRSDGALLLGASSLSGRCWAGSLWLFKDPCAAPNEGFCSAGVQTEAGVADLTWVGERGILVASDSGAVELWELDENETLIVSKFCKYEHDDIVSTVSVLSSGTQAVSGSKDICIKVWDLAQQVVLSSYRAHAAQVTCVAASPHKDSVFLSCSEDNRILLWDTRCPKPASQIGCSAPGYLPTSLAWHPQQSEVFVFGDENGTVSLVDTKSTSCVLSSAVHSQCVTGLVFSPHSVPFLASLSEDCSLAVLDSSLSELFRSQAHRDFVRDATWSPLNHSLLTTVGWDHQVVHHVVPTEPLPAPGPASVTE
Text: General Materials. S-adenosylmethionine (SAM), S-adenosylhomocysteine (SAH), bicine, KCl, Tween20, dimethylsulfoxide (DMSO), bovine skin gelatin (BSG), and Tris(2-carboxyethyl)phosphine hydrochloride solution (TCEP) were purchased from Sigma-Aldrich at the highest level of purity possible. ^3H-SAM was purchase from American Radiolabeled Chemicals with a specific activity of 80 Ci/mmol. 384-well streptavidin Flashplates were purchased from PerkinElmer.
Substrates. Peptide representative of human histone H4 residues 1-15 was synthesized with a C-terminal linker-affinity tag motif and a C-terminal amide cap by 21st Century Biochemicals. The peptide was high high-perfomance liquid chromatography (HPLC) purified to greater than 95% purity and confirmed by liquid chromatography mass spectrometry (LC-MS). The sequence was Ac-[…][K-Biot]-amide (SEQ ID NO.:3).
Molecular Biology: Full-length human PRMT5 (NM_006109.3) transcript variant 1 clone was amplified from a fetal brain cDNA library, incorporating flanking 5′ sequence encoding a FLAG tag ([…]) (SEQ ID NO.:4) fused directly to Ala 2 of PRMT5. Full-length human MEP50 (NM_024102) clone was amplified from a human testis cDNA library incorporating a 5′ sequence encoding a 6-histidine tag (MHHHHHH) (SEQ ID NO.:5) fused directly to Arg 2 of MEP50. The amplified genes were sublconed into pENTR/D/TEV (Life Technologies) and subsequently transferred by Gateway™ attL×attR recombination to pDEST8 baculvirus expression vector (Life Technologies).
Protein Expression. Recombinant baculovirus and Baculovirus-Infected Insect Cells (BIIC) were generated according to Bac-to-Bac kit instructions (Life Technologies) and Wasilko, 2006, respectively. Protein over-expression was accomplished by infecting exponentially growing Spodoptera frugiperda (SF9) cell culture at 1.2×10^6cell/ml with a 5000 fold dilution of BIIC stock. Infections were carried out at 27° C. for 72 hours, harvested by centrifugation, and stored at −80° C. for purification.
Protein Purification. […] Flag-PRMT5/6His-MeP50 was eluted with 300 mM Imidazole in the same buffer. The purity of recovered protein was 87%. Reference: Wasilko, D. J. and S. E. Lee: “TIPS: titerless infected-cells preservation and scale-up” Bioprocess J., 5 (2006), pp. 29-32.
General Procedure for PRMT5/MEP50 Enzyme Assays on Peptide Substrates. The assays were all performed in a buffer consisting of 20 mM Bicine (pH=7.6), 1 mM TCEP, 0.005% BSG, and 0.002% Tween20, prepared on the day of use. Compounds in 100% DMSO (1 ul) were spotted into a polypropylene 384-well V-bottom plates (Greiner) using a Platemate Plus outfitted with a 384-channel head (Thermo Scientific). DMSO (1 ul) was added to Columns 11, 12, 23, 24, rows A-H for the maximum signal control and 1 ul of SAH, a known product and inhibitor of PRMT5/MEP50, was added to columns 11, 12, 23, 24, rows I-P for the minimum signal control. A cocktail (40 ul) containing the PRMT5/MEP50 enzyme and the peptide was added by Multidrop Combi (Thermo-Fisher). The compounds were allowed to incubate with PRMT5/MEP50 for 30 min at 25 degrees Celsius, then a cocktail (10 ul) containing ^3H-SAM was added to initiate the reaction (final volume=51 ul). The final concentrations of the components were as follows: PRMT5/MEP50 was 4 nM, ^3H-SAM was 75 nM, peptide was 40 nM, SAH in the minimum signal control wells was 100 uM, and the DMSO concentration was […]. The assays were stopped by the addition of non-radioactive SAM (10 ul) to a final concentration of 600 uM, which dilutes the ^3H-SAM to a level where its incorporation into the peptide substrate is no longer detectable. 50 ul of the reaction in the 384-well polypropylene plate was then transferred to a 384-well Flashplate and the biotinylated peptides were allowed to bind to the streptavidin surface for at least 1 hour before being washed three times with 0.1% Tween20 in a Biotek ELx405 plate washer. […]
OC(COc1cccc(-c2ccc3ncn(-c4ccccc4)c3c2)c1)CN1CCc2ccccc2C1 (stereo not shown) [Compound 104, 1-(3,4-dihydroisoquinolin-2(1H)-yl)-3-(3-(1-phenyl-1H-benzo[d]imidazol-6-yl)phenoxy)propan-2-ol] gave an IC50 of 0.101 to 1 µM.
With OC(COc1cccc(-c2ccc3[nH]ncc3c2)c1)CN1CCc2ccccc2C1 (stereo not shown) [Compound 107] the IC50 was 0.101 to 1 µM.
With O=c1[nH]c2ccc(-c3cccc(OCC(O)CN4CCc5ccccc5C4)c3)cc2[nH]1 (stereo not shown) [Compound 109, 5-(3-(3-(3,4-dihydroisoquinolin-2(1H)-yl)-2-hydroxypropoxy)phenyl)-1H-benzo[d]imidazol-2(3H)-one] the IC50 was 0.101 to 1 µM.
COc1cc(Cl)cc(-c2cccc(OCC(O)CN3CCc4ccccc4C3)c2)c1 (stereo not shown) [Compound 110] showed an IC50 of 0.101 to 1 µM.
With N#CCc1cccc(-c2cccc(OCC(O)CN3CCc4ccccc4C3)c2)c1 (stereo not shown) [Compound 111] the IC50 was 0.101 to 1 µM.
Compound Cc1ccncc1-c1cccc(OCC(O)CN2CCc3ccccc3C2)c1 (stereo not shown) [Compound 113, 1-(3,4-dihydroisoquinolin-2(1H)-yl)-3-(3-(4-methylpyridin-3-yl)phenoxy)propan-2-ol] has an IC50 of 0.101 to 1 µM.
In the case of Cn1cc2ccc(-c3cccc(OCC(O)CN4CCc5ccccc5C4)c3)cc2n1 (stereo not shown) [Compound 114], the IC50 is reported as 0.101 to 1 µM.
For Cn1cc2cc(-c3cccc(OCC(O)CN4CCc5ccccc5C4)c3)ccc2n1 (stereo not shown) [Compound 115], the IC50 was 1 to 10 µM.
Cn1cnc2ccc(-c3cccc(NCC(O)CN4CCc5ccccc5C4)n3)cc21 (stereo not shown) [Compound 117, 1-(3,4-Dihydroisoquinolin-2(1H)-yl)-3-((6-(1-methyl-1H-benzo[d]imidazol-6-yl)pyridin-2-yl)amino)propan-2-ol] showed an IC50 of 0.101 to 1 µM.
Cn1cnc2ccc(-c3ccnc(NCC(O)CN4CCc5ccccc5C4)n3)cc21 (stereo not shown) [Compound 119] showed an IC50 of 0.101 to 1 µM.
With Cn1cnc2ccc(-c3nccc(NCC(O)CN4CCc5ccccc5C4)n3)cc21 (stereo not shown) [Compound 120, 1-(3,4-dihydroisoquinolin-2(1H)-yl)-3-((2-(1-methyl-1H-benzo[d]imidazol-6-yl)pyrimidin-4-yl)amino)propan-2-ol] the IC50 was 1 to 10 µM.
Cn1cnc2ccc(-c3cncc(NCC(O)CN4CCc5ccccc5C4)n3)cc21 (stereo not shown) [Compound 121, 1-(3,4-dihydroisoquinolin-2(1H)-yl)-3-((6-(1-methyl-1H-benzo[d]imidazol-6-yl)pyrazin-2-yl)amino)propan-2-ol] was tested, and the IC50 was 0.101 to 1 µM.
Compound CC1Cc2ccccc2CN1CC(O)COc1cccc(-c2ccc3ncn(C)c3c2)c1 (stereo not shown) [Compound 122] has an IC50 of 1 to 10 µM.
OC(COc1cccc(-c2ccc(C(F)(F)F)cc2C(F)(F)F)c1)CN1CCc2ccccc2C1 (stereo not shown) [Compound 124] gave an IC50 of 0.101 to 1 µM.
With CN(C)c1ncc(-c2cccc(OCC(O)CN3CCc4ccccc4C3)c2)cn1 (stereo not shown) [Compound 125, 1-(3,4-dihydroisoquinolin-2(1H)-yl)-3-(3-(2-(dimethylamino)pyrimidin-5-yl)phenoxy)propan-2-ol] the IC50 was 0.101 to 1 µM.
Work on O=C(c1cccc(-c2cccc(OCC(O)CN3CCc4ccccc4C3)c2)c1)N1CCOCC1 (stereo not shown) [Compound 126, (3′-(3-(3,4-dihydroisoquinolin-2(1H)-yl)-2-hydroxypropoxy)-[1,1′-biphenyl]-3-yl)(morpholino)methanone] yielded an IC50 of 0.101 to 1 µM.
Work on OC(COc1cccc(-c2ccc(C(F)(F)F)cc2Cl)c1)CN1CCc2ccccc2C1 (stereo not shown) [Compound 127] yielded an IC50 of 0.101 to 1 µM.
In the case of OC(COc1cccc(-c2cc(Cl)cc(C(F)(F)F)c2)c1)CN1CCc2ccccc2C1 (stereo not shown) [Compound 128], the IC50 is reported as 1 to 10 µM.
In the case of CS(=O)(=O)Nc1ccc(-c2cccc(OCC(O)CN3CCc4ccccc4C3)c2)cc1 (stereo not shown) [Compound 129], the IC50 is reported as 0.101 to 1 µM.
For CS(=O)(=O)c1cccc(-c2cccc(OCC(O)CN3CCc4ccccc4C3)c2)c1 (stereo not shown) [Compound 130], the IC50 was 0.101 to 1 µM.
Compound CS(=O)(=O)c1ccccc1-c1cccc(OCC(O)CN2CCc3ccccc3C2)c1 (stereo not shown) [Compound 131] has an IC50 of 0.101 to 1 µM.
OC(COc1cccc(-c2ccccc2C(F)(F)F)c1)CN1CCc2ccccc2C1 (stereo not shown) [Compound 132] showed an IC50 of 0.101 to 1 µM.
With OC(COc1cccc(-c2ccc(C(F)(F)F)cc2)c1)CN1CCc2ccccc2C1 (stereo not shown) [Compound 133] the IC50 was 1 to 10 µM.
COc1ccc(Cl)cc1-c1cccc(OCC(O)CN2CCc3ccccc3C2)c1 (stereo not shown) [Compound 134, 1-((5′-chloro-2′-methoxy-[1,1′-biphenyl]-3-yl)oxy)-3-(3,4-dihydroisoquinolin-2(1H)-yl)propan-2-ol] gave an IC50 of 0.101 to 1 µM.
Cn1ncc2ccc(-c3cc(COCC(O)CN4CCc5ccccc5C4)on3)cc21 (stereo not shown) [Compound 136] showed an IC50 of 0.101 to 1 µM.
With CC(=O)c1ccc(-c2cccc(OCC(O)CN3CCc4ccccc4C3)c2)cc1 (stereo not shown) [Compound 137] the IC50 was 0.101 to 1 µM.
In the case of Cc1ccc(F)c(-c2cccc(OCC(O)CN3CCc4ccccc4C3)c2)c1 (stereo not shown) [Compound 138], the IC50 is reported as 0.101 to 1 µM.
With OC(COc1cccc(-c2cccnc2F)c1)CN1CCc2ccccc2C1 (stereo not shown) [Compound 139] the IC50 was 0.101 to 1 µM.
OC(COc1cccc(-c2cncnc2)c1)CN1CCc2ccccc2C1 (stereo not shown) [Compound 140] showed an IC50 of 1 to 10 µM.
Work on COc1cccc2c1CCN(CC(O)COc1cccc(-c3ccc4ncn(C)c4c3)c1)C2 (stereo not shown) [Compound 142] yielded an IC50 of 1 to 10 µM.
In the case of CCOC(=O)CC1c2ccccc2CCN1CC(O)COc1cccc(-c2ccc3ncn(C)c3c2)c1 (stereo not shown) [Compound 144], the IC50 is reported as 1 to 10 µM.
With Cn1ccc2ccc(-c3cccc(OCC(O)CN4CCc5ccccc5C4)c3)cc21 (stereo not shown) [Compound 147] the IC50 was 0.101 to 1 µM.
For O=C1NCc2ccc(-c3cccc(OCC(O)CN4CCc5ccccc5C4)c3)cc21 (stereo not shown) [Compound 148], the IC50 was 0.101 to 1 µM.
CC(C)(C)OCc1cccc(-c2cccc(OCC(O)CN3CCc4ccccc4C3)c2)c1 (stereo not shown) [Compound 150] showed an IC50 of 0.101 to 1 µM.
In the case of CN(C)c1ccc(-c2cccc(OCC(O)CN3CCc4ccccc4C3)c2)cc1 (stereo not shown) [Compound 151], the IC50 is reported as 0.101 to 1 µM.
With NC(=O)c1ccc(-c2cccc(OCC(O)CN3CCc4ccccc4C3)c2)cc1 (stereo not shown) [Compound 152] the IC50 was 0.101 to 1 µM.
With COc1ncc(-c2cccc(OCC(O)CN3CCc4ccccc4C3)c2)cn1 (stereo not shown) [Compound 153] the IC50 was 1 to 10 µM.
For OC(COc1cccc(-c2ccccc2F)c1)CN1CCc2ccccc2C1 (stereo not shown) [Compound 154], the IC50 was 0.101 to 1 µM.
In the case of OC(COc1cccc(-c2cnccn2)c1)CN1CCc2ccccc2C1 (stereo not shown) [Compound 155], the IC50 is reported as 1 to 10 µM.
For O=C1COc2ccc(-c3cccc(OCC(O)CN4CCc5ccccc5C4)c3)cc2N1 (stereo not shown) [Compound 156, 6-(3-(3-(3,4-dihydroisoquinolin-2(1H)-yl)-2-hydroxypropoxy)phenyl)-2H-benzo[b][1,4]oxazin-3(4H)-one], the IC50 was 0.101 to 1 µM.
Compound O=C(Nc1cccc(OCC(O)CN2CCc3ccccc3C2)c1)c1cnco1 (stereo not shown) [Compound 158] has an IC50 of 1 to 10 µM.
Work on O=C(Nc1cccc(OCC(O)CN2CCc3ccccc3C2)c1)c1cocn1 (stereo not shown) [Compound 159] yielded an IC50 of 1 to 10 µM.
Cn1nccc1C(=O)Nc1cccc(OCC(O)CN2CCc3ccccc3C2)c1 (stereo not shown) [Compound 160] gave an IC50 of 1 to 10 µM.
With O=C(Nc1cccc(OCC(O)CN2CCc3ccccc3C2)c1)c1cncnc1 (stereo not shown) [Compound 161] the IC50 was 1 to 10 µM.
Cn1ccc(C(=O)Nc2cccc(OCC(O)CN3CCc4ccccc4C3)c2)n1 (stereo not shown) [Compound 162] showed an IC50 of 1 to 10 µM.
For O=C(Nc1cccc(OCC(O)CN2CCc3ccccc3C2)c1)c1cccnn1 (stereo not shown) [Compound 164], the IC50 was 1 to 10 µM.
With OC(COc1cccc(-c2ccc3cnoc3c2)c1)CN1CCc2ccccc2C1 (stereo not shown) [Compound 166] the IC50 was 1 to 10 µM.
For OC(COc1cccc(-c2ccccc2Oc2ccccc2)c1)CN1CCc2ccccc2C1 (stereo not shown) [Compound 167, 1-(3,4-dihydroisoquinolin-2(1H)-yl)-3-((2′-phenoxy-[1,1′-biphenyl]-3-yl)oxy)propan-2-ol], the IC50 was 0.101 to 1 µM.
With COc1ccc(-c2cccc(OCC(O)CN3CCc4ccccc4C3)c2)cc1Cl (stereo not shown) [Compound 168] the IC50 was 0.101 to 1 µM.
